Data as given in the Kinase Knowledgebase extract (Sharma et al. 2016).
pIC50: −log10 of the molar value.

biological target: MAPK14 (human) (UniProt Q16539); experiment: Inhibition of MAPK14 Kinase Activity
Sequence (Q16539 whole entry, looked up): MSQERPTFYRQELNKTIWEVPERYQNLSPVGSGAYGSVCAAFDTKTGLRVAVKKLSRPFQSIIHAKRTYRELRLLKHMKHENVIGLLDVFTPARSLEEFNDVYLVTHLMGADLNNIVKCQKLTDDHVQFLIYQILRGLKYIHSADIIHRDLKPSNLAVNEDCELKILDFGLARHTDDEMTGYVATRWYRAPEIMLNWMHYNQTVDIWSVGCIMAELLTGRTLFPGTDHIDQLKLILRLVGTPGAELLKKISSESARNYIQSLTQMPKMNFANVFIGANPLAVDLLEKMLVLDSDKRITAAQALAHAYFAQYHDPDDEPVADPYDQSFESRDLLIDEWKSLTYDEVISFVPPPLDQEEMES

| pIC50 | SMILES |
| --- | --- |
| ≥ 5.00 | CN1CC(Cc2ccc(F)cc2F)CN(c2c(Cl)ccc(CO)c2Cl)C1=O (stereo not given) |
| ≥ 5.00 | Cc1ccc(OC2CCC(=O)N(c3c(Cl)ccnc3Cl)C2)c(C)c1 (stereo not given) |
| ≥ 5.00 | Cc1cc(C)cc(SC2CCC(=O)N(c3c(Cl)cccc3Cl)C2)c1 (stereo not given) |
| ≥ 5.00 | CC(=O)Nc1ncc(Cl)c(N2CC(Oc3ccc(F)cc3F)CCC2=O)c1Cl (stereo not given) |
| ≥ 5.00 | NC1CC(Cl)C(N2CC(Cc3ccc(F)cc3F)CCC2=O)C(Cl)C1 (stereo not given) |
| ≥ 5.00 | O=C(Cc1ccccc1)Nc1cc(Cl)c(N2CC(Cc3ccc(F)cc3F)CSC2=O)c(Cl)c1 (stereo not given) |
| ≥ 5.00 | O=C1CCC(Cc2cc(Cl)cc(Cl)c2)CN1c1c(Cl)csc1Cl (stereo not given) |
| ≥ 5.00 | O=C(Cc1ccccc1)NC1CCC(Cl)C(N2CC(Sc3ccc(F)cc3F)CCC2=O)C1Cl (stereo not given) |
| ≥ 5.00 | O=C1CCC(Cc2ccc(Cl)cc2)CN1c1c(Cl)cncc1Cl (stereo not given) |
| ≥ 5.00 | CNc1cc(Cl)c(N2CC(Cc3ccc(F)cc3F)OCC2=O)c(Cl)c1 (stereo not given) |
| ≥ 5.00 | O=C1OCC(Cc2ccc(F)cc2F)CN1c1c(Cl)cc(O)cc1Cl (stereo not given) |
| ≥ 5.00 | COCC1CC(Cc2ccc(F)cc2F)CN(c2c(Cl)cccc2Cl)C1=O (stereo not given) |
| ≥ 5.00 | COc1ccc(OC2CCC(=O)N(c3c(Cl)ccnc3Cl)C2)cc1 (stereo not given) |
| ≥ 5.00 | O=C1CCC(Sc2ccccc2)CN1c1c(Cl)cncc1Cl (stereo not given) |
| ≥ 5.00 | O=C1CCC(Oc2cccc3ccccc23)CN1C1C(Cl)CCCC1Cl (stereo not given) |
| ≥ 5.00 | O=C1CCC(Oc2cc(F)cc(F)c2)CN1c1c(Cl)csc1Cl (stereo not given) |
| ≥ 5.00 | O=C1CCC(Oc2cccc3ccccc23)CN1c1c(Cl)cncc1Cl (stereo not given) |
| ≥ 5.00 | Cc1cc(C)cc(OC2CCC(=O)N(C3C(Cl)CCCC3Cl)C2)c1 (stereo not given) |
| ≥ 5.00 | O=C1CCC(Cc2ccccc2F)CN1c1c(Cl)csc1Cl (stereo not given) |
| ≥ 5.00 | O=C(NCc1ccccc1CC1CCC(=O)N(c2c(Cl)cccc2Cl)C1)Nc1ccccc1C(F)(F)F (stereo not given) |
| ≥ 5.00 | CNc1ccc(Cl)c(N2CC(Cc3ccc(F)cc3F)CN(C)C2=O)c1Cl (stereo not given) |
| ≥ 5.00 | O=C1CCC(Oc2ccc(F)cc2F)CN1c1c(Cl)csc1Cl (stereo not given) |
| ≥ 5.00 | Cc1ccc2ccccc2c1N1CC(Cc2ccc(F)cc2F)CCC1=O (stereo not given) |

| pIC50 | SMILES |
| --- | --- |
| ≥ 5.00 | Nc1cc(Cl)c(N2CC(Cc3ccccc3)CCC2=O)c(Cl)c1 (stereo not given) |
| ≥ 5.00 | NC1CCC(Cl)C(N2CC(Sc3ccc(F)cc3F)CCC2=O)C1Cl (stereo not given) |
| ≥ 5.00 | Cc1ccc(CC2CCC(=O)N(c3c(Cl)cncc3Cl)C2)c(C)c1 (stereo not given) |
| ≥ 5.00 | O=C1SCC(Cc2ccc(F)cc2F)CN1c1c(Cl)ccc(CO)c1Cl (stereo not given) |
| ≥ 5.00 | O=C1CCC(Sc2cc(F)cc(F)c2)CN1c1c(Cl)cncc1Cl (stereo not given) |
| ≥ 5.00 | Cc1ccc(CC2CCC(=O)N(c3c(Cl)csc3Cl)C2)c(C)c1 (stereo not given) |
| ≥ 5.00 | Cc1cc(C(=O)NCCN(C)C)cc(C)c1N1C[C@@H](Cc2ccc(F)cc2F)C[C@@H](C)C1=O |
| ≥ 5.00 | O=C1CCC(Sc2ccc(F)cc2F)CN1c1c(Cl)csc1Cl (stereo not given) |
| ≥ 5.00 | COc1ccccc1SC1CCC(=O)N(C2C(Cl)CCCC2Cl)C1 (stereo not given) |
| ≥ 5.00 | O=C1CCC(Cc2ccc(F)cc2F)CN1c1c(Cl)cc(NCCN2CCOCC2)cc1Cl (stereo not given) |
| ≥ 5.00 | CNc1cc(Cl)c(N2CC(Cc3ccc(F)cc3F)CCC2=O)c(Cl)n1 (stereo not given) |
| ≥ 5.00 | Cc1ccccc1OC1CCC(=O)N(c2c(Cl)ccnc2Cl)C1 (stereo not given) |
| ≥ 5.00 | Cc1cc(C)cc(OC2CCC(=O)N(c3c(Cl)cccc3Cl)C2)c1 (stereo not given) |
| ≥ 5.00 | O=C1NCC(Cc2ccc(Cl)cc2)CN1c1c(Cl)cccc1Cl (stereo not given) |
| ≥ 5.00 | Cc1cc(/C=C/CCN(C)C)cc(C)c1N1CC(Cc2ccc(F)cc2F)CCC1=O (stereo not given) |
| ≥ 5.00 | COc1ccccc1CC1CN(c2c(Cl)cccc2Cl)C(=O)CO1 (stereo not given) |
| ≥ 5.00 | O=C1CCC(Sc2cc(Cl)cc(Cl)c2)CN1c1c(Cl)cccc1Cl (stereo not given) |
| ≥ 5.00 | Nc1ccc(Cl)c(N2CC(Cc3ccc(F)cc3F)COC2=O)c1Cl (stereo not given) |
| ≥ 5.00 | CNc1cc(Cl)c(N2CC(Cc3ccc(F)cc3F)CNC2=O)c(Cl)c1 (stereo not given) |
| ≥ 5.00 | COC(=O)c1ccccc1CC1CCC(=O)N(c2c(C)cccc2C)C1 (stereo not given) |
| ≥ 5.00 | O=C1CSC(Cc2ccc3ccccc3c2)CN1c1c(Cl)cccc1Cl (stereo not given) |
| ≥ 5.00 | CC(=O)Nc1ccc(Cl)c(N2CC(Cc3ccc(F)cc3F)CNC2=O)c1Cl (stereo not given) |
